The source of these data is patent publication US10041047B2, “Compositions and methods for epithelial stem cell expansion and culture” (The Brigham and Women's Hospital, Inc., priority 2013, dated 2018).

In assay [1] the test system is Lgr5+ stem cells in small intestinal crypts. In words: Small intestinal crypt culture from Lgr5-GFP mice in Matrigel: cell proliferation and Lgr5-GFP expression. It is filed as cell-based, mouse. The settings on record: for effect to promote GFP expression: HDAC inhibitor added to ENR-C condition, 6 day crypt cultures, compared with VPA. As for the experimental part: Crypts and single Lgr5-GFP cells were isolated as previously described (Sato et al., 2009). Briefly, the proximal half of the small intestine was harvested, opened longitudinally, and washed with cold PBS to remove luminal content. The tissue was then cut into 2-4 mm pieces with scissors and further washed 5-10 times with cold PBS by pipetting up and down using a 10-ml pipette. Tissue fragments were incubated with 2 mM EDTA in PBS for 30 min on ice. After removal of EDTA, tissue fragments were washed with PBS to release crypts. Supernatant fractions enriched in crypts were collected, passed through a 70 μm cell strainer and centrifuged at 300 g for 5 minutes. The cell pellet was re-suspended with cell culture media without growth factors and centrifuged at 150 g to remove single cells. Crypts were then cultured or used for single cell isolation. To obtain single cells, crypts were incubated in culture medium for 45 minutes at 37° C. and triturated with a glass pipette. Dissociated cells were passed through 20 μm cell strainer, negative stained with propidium iodide and single viable GFP-high cells were sorted by flow cytometry (FACS Aria, BD) as previously described (Sato et al., 2009). Small intestinal crypts isolated from Lgr5-EGFP-ires-CreERT2 mice were embedded in Matrigel and cultured under conventional culture conditions in the presence of EGF, Noggin and R-spondin 1 (collectively referred to as ENR) leading to organoids with crypts and villus-like domains and GFP^+ cells at the crypt tips, consistent with previous reports (Sato et al., 2009). Isolated crypts or single cells were cultured as previously described (Sato et al., 2009) with minimal modification. Briefly, crypts or single cells were entrapped in Matrigel and plated at the center of wells in a 24-well plate. After polymerization of Matrigel (growth factor reduced; BD Bioscience), 500 μl of culture medium (Advanced DMEM/F12 (Life Technologies)) was added containing growth factors including EGF (50 ng/ml, Life Technologies), Noggin (100 ng/ml, Peprotech) and R-spondin 1 (500 ng/ml, R&D) and small molecules including CHIR99021 (3 μM, Stemgent) and Valproic Acid (1 mM, Sigma-Aldrich). For comparison of different culture conditions, small molecules or growth factors were added to freshly isolated crypts immediately after plating in Matrigel to test the ability to minimize potential differentiation of the ISC within the crypts and thus sustain crypt cultures. Cell culture media was changed every other day. For single cell culture, cells were embedded in Matrigel containing Jagged-1 peptide (1 μM; AnaSpec) and Y-27632 (10 μM; Tocris) was added for the first 2 days. Cells were passaged either as cell colonies as previously described (Sato et al., 2009) or as single cells. For single cell passage, cell culture medium was removed and Accutase (Life Technologies) was added. After incubation at 37° C. for 10-20 minutes, cell colonies were dissociated into single cells by pipetting. Cells were then washed, embedded in fresh Matrigel and plated into 24-well plates. Cells cultured in the CV condition were passaged every 6 days at a 1:20 split ratio. Approximately half of the cultured crypts contained GFP+ cells, which is consistent with the in vivo GFP expression of Lgr5-GFP mice (FIG. 1).
The growth factors used in the ENR condition provide essential, but not adequate cues to sustain the self-renewal of Lgr5^+ stem cells. To identify factors essential to maintaining the self-renewal status of intestinal stem cells, selected small molecules that modulate signaling pathways of ISCs, such as Wnt, Notch, and BMP, were tested under the ENR condition, using the Lgr5-GFP reporter.
CHIR is a highly-specific GSK3 inhibitor that activates the Wnt/β-catenin signaling pathway (Bain et al., 2007), and has been used to maintain the self-renewal state of embryonic stem cells (Ying et al., 2008). […]

A further assay has as its system Lgr5+ stem cells. In words: Controlled differentiation of Lgr5+ stem cells after CV culture (RT-PCR and staining of differentiation markers). It is filed as cell-based, mouse. The settings on record: colonies from 6 days CV, then 4 days with ENR plus agents (FIG. 7B).
In assay [2] the test system is human small intestinal crypts. In words: Culture of human small intestinal crypts: LGR5 expression (RT-PCR) and cell number. It is filed as cell-based. An excerpt: Human small intestinal crypts were isolated from a resected normal small intestinal specimen and cultured as described in Example 1. The same cell culture solutions used in the culture of mouse small intestinal stem cells/crypts, which comprise a combination of CHIR99021 and VPA or Tubastatin A added to the ENR (EGF, Noggin, R-Spondin 1) condition, were compared to published cell culture solutions for human intestinal stem cells/crypts (Jung et al., 2011; Sato et al., 2011). RT-PCR was used to assess the maintenance of epithelial stem cells in the culture, specifically by determining the self-renewal or differentiation status. LGR5 was used as a stem cell marker and ALPI, MUC2, CHGA and LYZ were used as differentiation markers. Cell growth was assessed by counting the cell number in the cultures and by observing the morphology and size of colonies.

In assay [3] the test system is Lgr5+ stem/progenitor cells derived from the mouse inner ear. In words: Culture of inner ear (cochlear) Lgr5-GFP epithelial cells in Matrigel. The assay is classed as cell-based. The settings on record: 8 day cultures; for cell proliferation on addition of a growth factor: EGF added to CV, others added to EGF+CV (FIG. 14D); for GFP expression on addition of a growth factor: added to EGF+CV or to the EGF+bFGF combination (FIG. 14D, 14E). An excerpt:
The same culture condition (EGF, Noggin, R-spondin1, or “ENR”) as used in Lgr5+ small intestinal stem cell cultures was first established.
Isolated organ of Corti from Lgr5-GFP mice were dissociated into single cells using accutase and cultured in multiple combinations of soluble factors and small molecules in Matrigel for 8 days. The resulting cultures were further dissociated into single cells and analyzed using FACS. […] In addition, the combination of EGF, bFGF and IGF-1 (designated as EFI) improved cell proliferation and GFP expression compared with the ENR condition (FIG. 14A-14C).
To further investigate the effects of individual growth factors when combined with CHIR and VPA, growth factors including Mitogenic growth factors (EGF, bFGF and IGF-1) as well as the Wnt agonist R-spondin 1 in combination with CHIR and VPA were tested.

Where [4] appears, read: ENR-C condition with DAPT 5 μM, 3 days.
Setting [5] is: combined with CHIR or Wnt3a, crypts 6 days (FIG. 9F).
Setting [6] is: multiple concentrations (FIG. 9E).

Consider `CCCC(=O)[O-].[Na+]` [Butyrate, Sodium butyrate], for which the “effect to promote GFP expression” value in assay [1] is “no or only moderate effects”.
With `CC(=O)Nc1ccc(C(=O)Nc2ccccc2N)cc1` [CI-994], the “effect to promote GFP expression” value in assay [1] is given as “no or only moderate effects”.
For the compound `C[C@H](NC(=O)Cc1cc(F)cc(F)c1)C(=O)N[C@H](C(=O)OC(C)(C)C)c1ccccc1` [DAPT, N-[N-(3,5-Difluorophenacetyl)-L-alanyl]-S-phenylglycine t-butyl ester], in assay [1] (setting [4]), the GFP expression result is reported as “impaired” and the cell proliferation entry is recorded as “impaired”. Besides, in the assay with Lgr5+ stem cells, the Alpi expression result is “induced expression”, the ChgA expression result is “greatly elevated”, the Lgr5 expression entry is “decreased” and the Lysozyme expression result is reported as “greatly elevated”. Also, the Muc2 expression entry in the assay with Lgr5+ stem cells was “greatly elevated”.
Turning to `Cc1ccc2nc(NC(=O)CSc3nc4c(c(=O)n3-c3ccccc3)SCC4)sc2c1` [IWP-2, N-(6-Methyl-2-benzothiazolyl)-2-[(3,4,6,7-tetrahydro-4-oxo-3-phenylthieno[3,2-d]pyrimidin-2-yl)thio]-acetamide], in the assay on Lgr5+ stem cells, the Alpi expression entry is given as “preferentially induced”, the ChgA expression result is “modestly elevated”, the Lgr5 expression result is “completely abolished” and the Lysozyme expression entry is on record as “completely abolished”. For the same compound, the Muc2 expression result in the assay on Lgr5+ stem cells is “modestly elevated”.
Take `Cn1c(/C=C/C(=O)NO)ccc1/C=C/C(=O)c1cccc(F)c1` [MC1568]: in assay [1], the “effect to promote GFP expression” value is recorded as “no or only moderate effects”.
Same read-out and setting: in the case of `Nc1ccccc1NC(=O)c1ccc(CNC(=O)OCc2cccnc2)cc1` [MS275] it was “no or only moderate effects”.
In the case of `NC(=O)c1cccnc1` [Nicotinamide], the “effect to promote GFP expression” value in assay [1] is given as “no or only moderate effects”. For the same compound, in assay [1] (setting [5]), the GFP expression entry is listed as “did not promote” and the cell proliferation result was “did not promote”. Further, the “expression of stem cell marker LGR5” value in assay [2] (added to ENR (or to the CHIR+VPA condition), RT-PCR) is on record as “without great impact”. Also, the “proliferation of human small intestinal crypts (cell number)” value in assay [2] (cell numbers at day 9 after seeding (FIG. 25A)) is reported as “increased the proliferation”.
Turning to `O=C(CCCCCCC(=O)NO)NO` [SBHA, Suberohydroxamic acid], the “effect to promote GFP expression” value in assay [1] is “no or only moderate effects”.
With `CC(/C=C/C(=O)NO)=C\[C@@H](C)C(=O)c1ccc(N(C)C)cc1` [TSA, Trichostatin A], in assay [1] (setting [6]), the “GFP expression at multiple concentrations” value is recorded as “maintained GFP expression” and the “cell proliferation at higher concentration” value is on record as “marked proliferation inhibition effect”.
As for EGF: Epidermal Growth Factor, the “requirement of growth factor to maintain self-renewal of Lgr5+ stem cells” value in assay [1] (crypts 6 days in the CV condition (CHIR 3 μM, VPA 1 mM)) was “could be removed from the culture without impacting maintenance”. The proliferation of crypts entry in assay [1] (growth factor in the CV condition, 6 days) was “promoted the proliferation”. Further, the “cell proliferation on addition of a growth factor” value in assay [3] is reported as “greatly increased”.
For the compound IGF-1: mitogenic growth factor, the “GFP expression on addition of a growth factor” value in assay [3] is “slightly increased”.
As to bFGF: mitogenic growth factor, in assay [3], the “cell proliferation on addition of a growth factor” value is reported as “further increased” and the “GFP expression on addition of a growth factor” value is listed as “further increased”.
